Measured values reported in ChEMBL document CHEMBL1201862, “PubChem BioAssay data set” (2004).
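In this assay, cells in 96-well plates receive the compound at five concentrations for 48 hours. Endpoints are linearly interpolated between the surrounding concentrations. At the GI50, growth is halved.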 Active and inactive are the calls of the source. Cut-off read from the data, not from the text of the source: active = GI50 up to about 1.1 µM and inactive = higher.

Assays:
Assay in all cases: NCI-60 cell line screen, 48 h
SF-295 = system: SF-295
NCI/ADR-RES = system: NCI/ADR-RES
U-251 = system: U-251
UACC-257 = system: UACC-257
ACHN = system: ACHN
TK-10 = system: TK-10
A549 = system: A549
SK-MEL-2 = system: SK-MEL-2
NCI-H226 = system: NCI-H226
HCC 2998 = system: HCC 2998
MDA-N = system: MDA-N
HCT-116 = system: HCT-116
UACC-62 = system: UACC-62
SK-MEL-28 = system: SK-MEL-28
MDA-MB-231 = system: MDA-MB-231
NCI-H522 = system: NCI-H522
KM12 = system: KM12
OVCAR-4 = system: OVCAR-4
EKVX = system: EKVX
HL-60 = system: HL-60

Measured: GI50

CCCCOP(=O)(OCCCC)/C(C#N)=C/c1ccc(C)o1
inactive: SF-295 43.7 µM | NCI/ADR-RES 15.5 µM | U-251 93.3 µM | UACC-257 27.4 µM | ACHN 42.2 µM | TK-10 > 100 µM | A549 47.2 µM | SK-MEL-2 31 µM | NCI-H226 28 µM | HCC 2998 > 100 µM | MDA-N 36.9 µM | HCT-116 36.9 µM | UACC-62 53.7 µM | SK-MEL-28 60.8 µM | MDA-MB-231 > 100 µM | NCI-H522 58.9 µM | KM12 42.4 µM | OVCAR-4 46.8 µM | EKVX 40.6 µM

O=C(O)CCC/N=C(\C(=N\CCCC(=O)O)c1ccccc1)c1ccccc1
inactive: SF-295 > 100 µM | NCI/ADR-RES > 100 µM | U-251 > 100 µM | UACC-257 > 100 µM | ACHN > 100 µM | TK-10 > 100 µM | A549 > 100 µM | SK-MEL-2 > 100 µM | NCI-H226 > 100 µM | HCC 2998 > 100 µM | MDA-N > 100 µM | HCT-116 > 100 µM | UACC-62 > 100 µM | SK-MEL-28 > 100 µM | MDA-MB-231 > 100 µM | KM12 > 100 µM | OVCAR-4 > 100 µM | EKVX > 100 µM

CN(CC(=O)O)Cc1c(O)c(Cl)cc(Cl)c1Cl
inactive: HL-60 13.9 µM | SF-295 64.9 µM | NCI/ADR-RES 26.8 µM | U-251 17 µM | UACC-257 19.8 µM | ACHN 36.5 µM | TK-10 37.8 µM | A549 53.7 µM | SK-MEL-2 27.2 µM | NCI-H226 22.8 µM | MDA-N 47.2 µM | HCT-116 12.5 µM | UACC-62 23.1 µM | SK-MEL-28 24.5 µM | MDA-MB-231 45.2 µM | NCI-H522 27.8 µM | KM12 31.2 µM | OVCAR-4 33.6 µM | EKVX 24.2 µM

CC(C)(C)OC(=O)N1CCC[C@H]1CSC[C@@H]1CCCN1C(=O)OC(C)(C)C
inactive: SF-295 30.8 µM | NCI/ADR-RES 18.7 µM | U-251 29.7 µM | UACC-257 28.8 µM | ACHN 32.2 µM | TK-10 56.9 µM | A549 24.4 µM | SK-MEL-2 18.3 µM | HCC 2998 39.8 µM | MDA-N 29.4 µM | HCT-116 25.6 µM | UACC-62 21.7 µM | SK-MEL-28 24.6 µM | MDA-MB-231 31.5 µM | NCI-H522 24 µM | KM12 20.9 µM | OVCAR-4 28.7 µM | EKVX 32.8 µM

CCc1ccccc1NNc1cc(=O)[nH]c(=O)[nH]1
inactive: HL-60 26.7 µM | SF-295 17.9 µM | NCI/ADR-RES 13.3 µM | U-251 17.4 µM | UACC-257 18.5 µM | ACHN 16.9 µM | TK-10 > 10 µM | A549 24.5 µM | SK-MEL-2 16.6 µM | NCI-H226 18.5 µM | HCC 2998 16.6 µM | MDA-N 17.9 µM | HCT-116 16.7 µM | UACC-62 19.6 µM | SK-MEL-28 18.1 µM | MDA-MB-231 17.5 µM | KM12 17.3 µM | OVCAR-4 20.3 µM | EKVX 17.5 µM

O=C(C(=O)n1ccc2ccccc21)n1ccc2ccccc21
inactive: SF-295 37.6 µM | NCI/ADR-RES > 100 µM | U-251 63.4 µM | UACC-257 > 100 µM | ACHN > 100 µM | TK-10 > 100 µM | A549 83.2 µM | SK-MEL-2 > 100 µM | NCI-H226 > 100 µM | HCC 2998 > 100 µM | MDA-N > 100 µM | HCT-116 > 100 µM | UACC-62 57.9 µM | SK-MEL-28 > 100 µM | MDA-MB-231 > 100 µM | NCI-H522 49.2 µM | OVCAR-4 29 µM | EKVX > 100 µM

O=c1[nH]nc(Nc2ccccc2)c2nnn(C3CCCCC3)c12
inactive: HL-60 > 100 µM | SF-295 > 100 µM | NCI/ADR-RES > 100 µM | U-251 > 100 µM | UACC-257 > 100 µM | ACHN > 100 µM | TK-10 > 100 µM | A549 > 100 µM | SK-MEL-2 > 100 µM | HCC 2998 > 100 µM | MDA-N > 100 µM | HCT-116 > 100 µM | SK-MEL-28 > 100 µM | MDA-MB-231 > 100 µM | KM12 > 100 µM | OVCAR-4 > 100 µM | EKVX > 100 µM

O=C1CC(=O)NC(NN2C(=O)/C(=C/c3ccccc3)N=C2c2ccccc2)=N1
inactive: SF-295 > 100 µM | NCI/ADR-RES > 100 µM | U-251 > 100 µM | UACC-257 > 100 µM | ACHN > 100 µM | TK-10 > 100 µM | A549 > 100 µM | SK-MEL-2 > 100 µM | NCI-H226 > 100 µM | HCC 2998 > 100 µM | MDA-N > 100 µM | HCT-116 > 100 µM | UACC-62 26.7 µM | SK-MEL-28 > 100 µM | MDA-MB-231 > 100 µM | NCI-H522 > 100 µM | KM12 > 100 µM | OVCAR-4 > 100 µM

O=c1n(-c2ccccc2)c(=O)n2c(-c3ccccc3)c(-c3ccccc3)n12
inactive: HL-60 33.4 µM | SF-295 84.1 µM | NCI/ADR-RES > 100 µM | U-251 > 100 µM | UACC-257 > 100 µM | ACHN > 100 µM | TK-10 > 100 µM | A549 > 100 µM | SK-MEL-2 > 100 µM | NCI-H226 > 100 µM | HCC 2998 77.8 µM | MDA-N > 100 µM | HCT-116 37.4 µM | UACC-62 > 100 µM | SK-MEL-28 > 100 µM | MDA-MB-231 > 100 µM | KM12 > 100 µM | OVCAR-4 > 100 µM | EKVX > 100 µM

Cc1nc2c(O)cc3c4c(=O)n(C)c(=O)n(C)c4n(Cc4ccccc4)c3c2nc1C
inactive: HL-60 24.2 µM | SF-295 50.5 µM | NCI/ADR-RES 25.8 µM | U-251 18.3 µM | UACC-257 18.4 µM | ACHN 17.9 µM | TK-10 17.6 µM | A549 19.2 µM | SK-MEL-2 18 µM | NCI-H226 21.6 µM | HCC 2998 22.7 µM | MDA-N 18.4 µM | HCT-116 14.4 µM | UACC-62 18.2 µM | SK-MEL-28 14.3 µM | MDA-MB-231 20.4 µM | KM12 21.2 µM | OVCAR-4 11.1 µM | EKVX 24.3 µM

COc1ccc2oc(=N)c(C(N)=O)cc2c1
inactive: HL-60 22.9 µM | NCI/ADR-RES 53.3 µM | U-251 > 100 µM | UACC-257 > 100 µM | ACHN 30.3 µM | A549 > 100 µM | SK-MEL-2 23.6 µM | NCI-H226 46.1 µM | HCC 2998 32.7 µM | MDA-N 57.1 µM | HCT-116 50.9 µM | UACC-62 29.8 µM | SK-MEL-28 79.4 µM | MDA-MB-231 66.8 µM | KM12 31.5 µM | OVCAR-4 48.1 µM

O=C(CN1CCOCC1)Nc1ccc2c(c1)C1Oc3ccccc3CC1CO2 (centres undefined)
inactive: SF-295 > 100 µM | NCI/ADR-RES > 100 µM | U-251 > 100 µM | UACC-257 > 100 µM | ACHN > 100 µM | TK-10 > 100 µM | A549 > 100 µM | SK-MEL-2 > 100 µM | NCI-H226 > 100 µM | HCC 2998 > 100 µM | MDA-N > 100 µM | HCT-116 > 100 µM | UACC-62 > 100 µM | MDA-MB-231 > 100 µM | NCI-H522 > 100 µM | KM12 > 100 µM | EKVX > 100 µM

COc1ccc(Cc2c(N)[nH]c(=O)n(C)c2=O)cc1
inactive: SF-295 > 100 µM | NCI/ADR-RES > 100 µM | U-251 > 100 µM | UACC-257 > 100 µM | ACHN > 100 µM | TK-10 > 100 µM | A549 > 100 µM | SK-MEL-2 > 100 µM | NCI-H226 > 100 µM | HCC 2998 > 100 µM | MDA-N > 100 µM | HCT-116 > 100 µM | UACC-62 > 100 µM | SK-MEL-28 > 100 µM | MDA-MB-231 92.7 µM | NCI-H522 > 100 µM | KM12 > 100 µM | OVCAR-4 89.7 µM | EKVX 10.6 µM

Cc1ccc(-c2nc(C)c(C(=O)Nc3ccc(Cl)cc3)s2)cc1
inactive: HL-60 > 100 µM | SF-295 15.4 µM | NCI/ADR-RES 29.2 µM | U-251 22.1 µM | UACC-257 > 100 µM | ACHN 18.4 µM | TK-10 20.6 µM | A549 61.7 µM | SK-MEL-2 34.4 µM | NCI-H226 20.6 µM | MDA-N > 100 µM | HCT-116 18.5 µM | UACC-62 19.6 µM | SK-MEL-28 > 100 µM | MDA-MB-231 30.3 µM | NCI-H522 30.5 µM | KM12 > 100 µM | OVCAR-4 18.3 µM | EKVX 37.8 µM

O=C(OCCN=c1c2ccccc2ccc2ccccc12)c1ccccc1
inactive: HL-60 27.3 µM | SF-295 > 100 µM | NCI/ADR-RES 96.4 µM | U-251 56.4 µM | UACC-257 > 100 µM | ACHN 97.1 µM | TK-10 > 100 µM | A549 86.5 µM | SK-MEL-2 > 100 µM | NCI-H226 > 100 µM | HCC 2998 72.8 µM | MDA-N > 100 µM | HCT-116 42.2 µM | UACC-62 75 µM | SK-MEL-28 > 100 µM | MDA-MB-231 91.8 µM | KM12 86.5 µM | OVCAR-4 42.3 µM | EKVX 29.2 µM
